From US20070049564A1 (Wyeth, priority 2005, published 2007)
Values after ≈ are worked out from the molar mass of the structure shown. Read-outs that look alike come from different tables or passages of the source.

Legend:
S. pyogenes GC 4563 = test: MIC, broth microdilution; conditions: Streptococcus pyogenes, GC4563, S. pyogenes GC 4563
E. faecalis GC 4555 = test: MIC, broth microdilution; conditions: Enterococcus faecalis, GC4555, E. faecalis GC 4555
E. coli GC 2235 = test: MIC, broth microdilution; conditions: Escherichia coli, GC2235, E. coli GC 2235
Staph. aureus Smith = test: In vivo activity (oral, iv; ED50) against Staph. aureus Smith in mice
Method: Representative examples of compounds of Formula I were tested for the oral efficacy using S. aureus Smith in mice.

E. coli GC 2232 = test: MIC, broth microdilution; conditions: Escherichia coli, GC2232, E. coli GC 2232
S. aureus GC 4536 = test: MIC, broth microdilution; conditions: Staphylococcus aureus, GC4536, S. aureus GC 4536
Method: Antimicrobial susceptibility testing. The in vitro activities of the antibiotics are determined by the broth microdilution method as recommended by the National Committee for Clinical Laboratory Standards (NCCLS) (1). Mueller-Hinton II broth (MHBII)(BBL Cockeysville, Md.) is the medium employed in the testing procedures. Microtiter plates containing serial dilutions of each antimicrobial agent are inoculated with each organism to yield the appropriate density (10^5 CFU/ml) in a 100 μl final volume. The plates are incubated for 18-22 hours at 35° C. in ambient air.
Representative compounds were first incubated in mouse serum for an hour prior to the in vitro testing against a panel of selected gram-positive and gram-negative bacteria strains. All compounds were also pre-incubated in water for an hour prior to testing as control. Representative compounds of Formula I were incubated in human serum prior to MIC determination.

S. pneumoniae+ GC 4465 = test: MIC, broth microdilution; conditions: Streptococcus pneumoniae, S. pneumoniae+ GC 4465
E. coli GC 2234 = test: MIC, broth microdilution; conditions: Escherichia coli, GC2234, E. coli GC 2234
S. pneumoniae* GC 4465 = test: MIC, broth microdilution; conditions: Streptococcus pneumoniae, S. pneumoniae* GC 4465
S. typhimurium GC 2172 = test: MIC, broth microdilution; conditions: Salmonella enterica, TYPHIMURIUM, S. typhimurium GC 2172
S. aureus GC 2216 = test: MIC, broth microdilution; conditions: Staphylococcus aureus, GC2216, S. aureus GC 2216
E. coli GC 2231 = test: MIC, broth microdilution; conditions: Escherichia coli, GC2231, E. coli GC 2231
E. faecium GC 4556 = test: MIC, broth microdilution; conditions: Enterococcus faecium, GC4556, E. faecium GC 4556
S. aureus GC 6466 = test: MIC, broth microdilution; conditions: Staphylococcus aureus, GC6466, S. aureus GC 6466
Staph. = test: Range of MIC for Staph. strains, including MRSA; conditions: Staphylococcus aureus, MRSA
E. coli GC 2236 = test: MIC, broth microdilution; conditions: Escherichia coli, GC2236, E. coli GC 2236
S. agalactiae GC 4564 = test: MIC, broth microdilution; conditions: Streptococcus agalactiae, GC4564, S. agalactiae GC 4564
E. faecalis GC 2242 = test: MIC, broth microdilution; conditions: Enterococcus faecalis, GC2242, E. faecalis GC 2242
E. coli GC 4559 = test: MIC, broth microdilution; conditions: Escherichia coli, GC4559, E. coli GC 4559
E. coli = test: Range of MIC for E. coli strains; conditions: Escherichia coli

## CCCN(CC(=O)Nc1cc(N(C)C)c2c(c1O)C(=O)C1=C(O)[C@]3(O)C(=O)C(C(N)=O)=C(O)[C@@H](N(C)C)[C@@H]3C[C@@H]1C2)C(=O)OCOC(=O)C(C)(C)C [Example 9, ({[(2-{[(5aR,6aS,7S,10aS)-9-(aminocarbonyl)-4,7-bis(dimethylamino)-1,8,10a,11-tetrahydroxy-10,12-dioxo-5,5a,6,6a,7,10,10a,12-octahydrotetracen-2-yl]amino}-2-oxoethyl)(propyl)amino]carbonyl}oxy)methyl pivalate]
S. pyogenes GC 4563; Mouse Serum pre-incubation
  MIC: < 0.06 µg/mL
S. pyogenes GC 4563; Water pre-incubation
  MIC: < 0.06 µg/mL
E. faecalis GC 4555; Mouse Serum pre-incubation
  MIC: 0.5 µg/mL (≈ 0.685 µM)
E. faecalis GC 4555; Water pre-incubation
  MIC: 2 µg/mL (≈ 2.74 µM)
E. coli GC 2235; Mouse Serum pre-incubation
  MIC: 0.5 µg/mL (≈ 0.685 µM)
E. coli GC 2235; Water pre-incubation
  MIC: 4 µg/mL (≈ 5.48 µM)
Staph. aureus Smith; Staphylococcus aureus, in Mus musculus, po, read-out: ED50 Staph Smith SOD
  ED50: 11.3 mg/kg
Staph. aureus Smith; iv, read-out: ED50 Staph Smith SIV
  ED50: 0.32 mg/kg
E. coli GC 2232; Mouse Serum pre-incubation
  MIC: 1 µg/mL (≈ 1.37 µM)
E. coli GC 2232; Water pre-incubation
  MIC: 8 µg/mL (≈ 11 µM)
S. aureus GC 4536; Mouse Serum pre-incubation
  MIC: 0.5 µg/mL (≈ 0.685 µM)
S. aureus GC 4536; Water pre-incubation
  MIC: 0.5 µg/mL (≈ 0.685 µM)
S. pneumoniae+ GC 4465; Mouse Serum pre-incubation
  MIC: 2 µg/mL (≈ 2.74 µM)
S. pneumoniae+ GC 4465; Water pre-incubation
  MIC: 2 µg/mL (≈ 2.74 µM)
E. coli GC 2234; Mouse Serum pre-incubation
  MIC: 0.5 µg/mL (≈ 0.685 µM)
E. coli GC 2234; Water pre-incubation
  MIC: 8 µg/mL (≈ 11 µM)
S. pneumoniae* GC 4465; Mouse Serum pre-incubation
  MIC: < 0.06 µg/mL
S. pneumoniae* GC 4465; Water pre-incubation
  MIC: < 0.06 µg/mL
S. typhimurium GC 2172; Mouse Serum pre-incubation
  MIC: 8 µg/mL (≈ 11 µM)
S. typhimurium GC 2172; Water pre-incubation
  MIC: > 64 µg/mL
S. aureus GC 2216; Mouse Serum pre-incubation
  MIC: 0.25 µg/mL (≈ 0.343 µM)
S. aureus GC 2216; Water pre-incubation
  MIC: 0.5 µg/mL (≈ 0.685 µM)
E. coli GC 2231; Mouse Serum pre-incubation
  MIC: 2 µg/mL (≈ 2.74 µM)
E. coli GC 2231; Water pre-incubation
  MIC: 64 µg/mL (≈ 87.7 µM)
E. faecium GC 4556; Mouse Serum pre-incubation
  MIC: 0.25 µg/mL (≈ 0.343 µM)
E. faecium GC 4556; Water pre-incubation
  MIC: 0.5 µg/mL (≈ 0.685 µM)
S. aureus GC 6466; Mouse Serum pre-incubation
  MIC: 0.12 µg/mL (≈ 0.164 µM)
S. aureus GC 6466; Water pre-incubation
  MIC: 0.12 µg/mL (≈ 0.164 µM)
Staph.; read-out: Range of MIC, Staph (Mouse Serum)
  MIC: 0.06 to 2 µg/mL (≈ 0.0822 to 2.74 µM)
Staph.; read-out: Range of MIC, Staph (Water)
  MIC: 0.12 to 2 µg/mL (≈ 0.164 to 2.74 µM)
Staph.; read-out: Range of MIC, Staph. (mouse serum)
  MIC: 0.06 to 1 µg/mL (≈ 0.0822 to 1.37 µM)
Staph.; read-out: Range of MIC, Staph. (water)
  MIC: 0.12 to 2 µg/mL (≈ 0.164 to 2.74 µM)
E. coli GC 2236; Mouse Serum pre-incubation
  MIC: 1 µg/mL (≈ 1.37 µM)
E. coli GC 2236; Water pre-incubation
  MIC: 8 µg/mL (≈ 11 µM)
S. agalactiae GC 4564; Mouse Serum pre-incubation
  MIC: 0.12 µg/mL (≈ 0.164 µM)
S. agalactiae GC 4564; Water pre-incubation
  MIC: 0.25 µg/mL (≈ 0.343 µM)
E. faecalis GC 2242; Mouse Serum pre-incubation
  MIC: 0.5 µg/mL (≈ 0.685 µM)
E. faecalis GC 2242; Water pre-incubation
  MIC: 1 µg/mL (≈ 1.37 µM)
E. coli GC 4559; Mouse Serum pre-incubation
  MIC: 1 µg/mL (≈ 1.37 µM)
E. coli GC 4559; Water pre-incubation
  MIC: 8 µg/mL (≈ 11 µM)
E. coli; 20 h, read-out: Range of MIC, E. coli (Mouse Serum)
  MIC: 0.5 to 2 µg/mL (≈ 0.685 to 2.74 µM)
E. coli; read-out: Range of MIC, E. coli (Water)
  MIC: 4 to 64 µg/mL (≈ 5.48 to 87.7 µM)
E. coli; read-out: Range of MIC, E. coli (mouse serum)
  MIC: 0.5 to 2 µg/mL (≈ 0.685 to 2.74 µM)
E. coli; read-out: Range of MIC, E. coli (water)
  MIC: 4 to 64 µg/mL (≈ 5.48 to 87.7 µM)
